In patent US6180622A, “Imidazo[5,1-b]thiazol-3-yl carbapenem antimicrobials” (priority 1996, dated 2001):
In brackets after ≈: the same amount, converted by molar mass.

Experiments:
C. freundii GN346 = assay: Antimicrobial activity (minimum inhibitory concentration); assay type: cell-based; conditions: Citrobacter freundii
Procedure: (§1) For representative compounds among the novel carbapenem derivatives of the present invention, the minimum inhibitory concentration (MIC, μg/ml) against various pathogenic bacteria was measured in accordance with a method described in CHEMOTHERAPY, Vol. 16, No. 1, 99 (1968).

E. cloacae G-0008 = assay: as above; assay type: cell-based; conditions: Enterobacter cloacae, G0008
Procedure: as §1

E. coli GN206 = assay: as above; assay type: cell-based; conditions: Escherichia coli
Procedure: as §1

E. coli NIHJ JC-2 = assay: as above; assay type: cell-based; conditions: Escherichia coli, NIHJJC2
Procedure: as §1

K. pneumoniae PCI602 = assay: as above; assay type: cell-based; conditions: Klebsiella pneumoniae
Procedure: as §1

M. morganii 1510 = assay: as above; assay type: cell-based; conditions: Morganella morganii
Procedure: as §1

P. vulgaris GN76 = assay: as above; assay type: cell-based; conditions: Proteus vulgaris; P. vulgaris GN76; read-out: MIC
Procedure: as §1

Ps. aeruginosa GN10362 = assay: as above; assay type: cell-based; conditions: Pseudomonas aeruginosa; Ps. aeruginosa GN10362; read-out: MIC
Procedure: as §1

S. aureus 209P JC-1 = assay: as above; assay type: cell-based; conditions: Staphylococcus aureus
Procedure: as §1

S. aureus M126 = assay: as above; assay type: cell-based; conditions: Staphylococcus aureus; S. aureus M126, highly meticillin-resistant strain
Procedure: as §1

S. marcescens No. 1 = assay: as above; assay type: cell-based; conditions: Serratia marcescens
Procedure: as §1

[1] = Stability against DHP-I (pig); assay type: in vitro ADME; conditions: kidney dhp-i, 100 μg (potency)/ml, 37° C., pH 7.0, read-out: residue (%) of the carbapenem derivative
Procedure: (§2) The stability of representative compounds, among the novel carbapenem derivatives of the present invention, against kidney dehydropeptidase-I (DHP-I) of a pig and a mouse was measured, and the residue (%) of the carbapenem derivatives three hr after the initiation of the test is summarized in Table 6.
(§3) 1.5 g of a kidney acetone powder (manufactured by Sigma) Porcine Type II (Lot. 33H7225) was suspended in 100 ml of 50 mM Tris-HCl buffer (pH 7.0) containing 20% butanol, and the suspension was stirred at 5° C. for 48 hr. The suspension was then dialyzed against 50 mM Tris-HCl buffer (pH 7.0) (a cellulose tube 30/32 Viskase Sales Corp.) until the odor of butanol disappeared, thereby removing butanol. The dialyzate is centrifuged at 10000×g (KUBOTA 6800) for 20 min, and the supernatant was obtained as a partially purified DHP-I. This partially purified DHP-I was subdivided and stored at -80° C. The above procedure was repeated, except that 1.5 g of Mouse (Lot. 23F8105) was used. Thus, a partially purified DHP-I was prepared and stored.
(§4) For the carbapenem as the substrate agent, a solution (2000 μg (potency)/ml) was prepared using sterilized, purified water. For the sample solution, the carbapenem (2000 μg (potency)/ml) solution was added to the partially purified DHP-I of each animal to a final concentration of 100 μg (potency)/ml). For the blank, 50 mM Tris-HCl buffer (pH 7.0) was used instead of the partially purified DHP-I of each animal. The reaction was allowed to proceed at 37° C. for 3 hr, and a given amount of the reaction mixture was sampled. Methanol in the same amount as the sampled reaction mixture was added under ice cooling to terminate the reaction. The reaction mixture was filtered through a filter (Sanprep LCR 13-LH manufactured by MILLIPORE) and subjected to HPLC (column: CAPCELL PACK C18SG120, manufactured by Shiseido Co., Ltd.; detection: UV; mobile layer: acetonitrile/10 mM aqueous acetic acid solution) to determined the residue (%).
(§5) Residue (%)=(Sample Peak Area/Blank Peak Area)×100

[2] = Stability against DHP-I (mouse); assay type: in vitro ADME; conditions: kidney dhp-i, 100 μg (potency)/ml, 37° C., pH 7.0, read-out: residue (%) of the carbapenem derivative
Procedure: as §2, §3, §4, §5

SMILES | MIC (C. freundii GN346) | MIC (E. cloacae G-0008) | MIC (E. coli GN206) | MIC (E. coli NIHJ JC-2) | MIC (K. pneumoniae PCI602) | MIC (M. morganii 1510) | MIC (P. vulgaris GN76) | MIC (Ps. aeruginosa GN10362) | MIC (S. aureus 209P JC-1) | MIC (S. aureus M126) | MIC (S. marcescens No. 1) | remaining at 3 h [1] | remaining at 3 h [2]
C[C@@H](O)[C@H]1C(=O)N2C(C(=O)O)=C(S[C@@H]3CN[C@H](C(O)c4cn5c[n+](C)cc5s4)C3)[C@H](C)[C@H]12 (single isomer, unassigned) [Ex. 18] | 0.2 µg/mL | 0.05 µg/mL | 0.05 µg/mL | 0.05 µg/mL | 0.1 µg/mL | 0.2 µg/mL | 0.39 µg/mL | 3.13 µg/mL | < 0.025 µg/mL | 12.5 µg/mL | 0.1 µg/mL |  | 
C[C@@H](O)[C@H]1C(=O)N2C(C(=O)O)=C(S[C@@H]3CN[C@H](C(=O)N(C)C)C3)[C@H](C)[C@H]12 [Compound C, Meropenem] |  |  |  |  |  |  |  |  |  |  |  | 71% | 18%
C[C@@H](O)[C@H]1C(=O)N2C(C(=O)O)=C(S[C@@H]3CN[C@H](C(=O)NCc4n5ccsc5c[n+]4C)C3)[C@H](C)[C@H]12 [Ex. 2, (1R,5S,6S)-6-((1R)-1-Hydroxyethyl)-1-methyl-2-[(3S,5S)-5-[(6-methylimidazo[5,1-b]thiazolium-5-yl)methylaminocarbonyl]pyrrolidin-3-yl]thiocarbapen-2-em-3-carboxylic acid chloride] | 0.2 µg/mL | 0.1 µg/mL | 0.05 µg/mL | 0.1 µg/mL | 0.1 µg/mL | 0.39 µg/mL | 1.56 µg/mL | 12.5 µg/mL | < 0.025 µg/mL | 6.25 µg/mL | 0.2 µg/mL |  | 
C[C@@H](O)[C@H]1C(=O)N2C(C(=O)O)=C(S[C@@H]3CN[C@H](/C=C\c4csc5cncn45)C3)[C@H](C)[C@H]12 [Ex. 38, (1R,5S,6S)-6-((1R)-1-Hydroxyethyl)-2-[(3S,5S)-5-[2(Z)-(imidazo[5,1-b]thiazol-3-yl)ethenyl]pyrrolidin-3-yl]thio-1-methylcarbapen-2-em-3-carboxylic acid] | 0.2 µg/mL (≈ 0.434 µM) | 0.1 µg/mL (≈ 0.217 µM) | 0.1 µg/mL (≈ 0.217 µM) | 0.1 µg/mL (≈ 0.217 µM) | 0.2 µg/mL (≈ 0.434 µM) | 0.78 µg/mL (≈ 1.69 µM) | 1.56 µg/mL (≈ 3.39 µM) | 6.25 µg/mL (≈ 13.6 µM) | 0.1 µg/mL (≈ 0.217 µM) | 25 µg/mL (≈ 54.3 µM) | 0.2 µg/mL (≈ 0.434 µM) |  | 
C[C@@H](O)[C@H]1C(=O)N2C(C(=O)[O-])=C(S[C@@H]3CN[C@H](/C=C\c4csc5c[n+](CCC(N)=O)cn45)C3)[C@H](C)[C@H]12 [Ex. 72, (1R,5S,6S)-2-[(3S,5S)-5-[2(Z)-(6-(2-Carbamoylethyl)imidazo[5,1-b]thiazolium-3-yl)ethenyl]pyrrolidin-3-yl]thio-6-((1R)-1-hydroxyethyl)-1-methylcarbapen-2-em-3-carboxylate] | 0.1 µg/mL (≈ 0.188 µM) | 0.05 µg/mL (≈ 0.094 µM) | 0.1 µg/mL (≈ 0.188 µM) | 0.05 µg/mL (≈ 0.094 µM) | 0.1 µg/mL (≈ 0.188 µM) | 0.39 µg/mL (≈ 0.734 µM) | 0.78 µg/mL (≈ 1.47 µM) | 1.56 µg/mL (≈ 2.93 µM) | < 0.025 µg/mL | 6.25 µg/mL (≈ 11.8 µM) | 0.1 µg/mL (≈ 0.188 µM) |  | 
C[C@@H](O)[C@H]1C(=O)N2C(C(=O)O)=C(S[C@@H]3CN[C@H](/C=C\c4cn5c[n+](CCC(N)=O)cc5s4)C3)[C@H](C)[C@H]12 [Ex. 76, (1R,5S,6S)-2-[(3S,5S)-5-[2(Z)-(6-(2-Carbamoylethyl)imidazo[5,1-b]thiazolium-2-yl)ethenyl]pyrrolidin-3-yl]thio-6-((1R)-1-hydroxyethyl)-1-methylcarbapen-2-em-3-carboxylic acid chloride] | 0.1 µg/mL | 0.05 µg/mL | 0.1 µg/mL | 0.05 µg/mL | 0.1 µg/mL | 0.2 µg/mL | 0.39 µg/mL | 0.78 µg/mL | < 0.025 µg/mL | 6.25 µg/mL | 0.2 µg/mL |  | 

Second part, the compound after the results:

MIC (C. freundii GN346) | MIC (E. cloacae G-0008) | MIC (E. coli GN206) | MIC (E. coli NIHJ JC-2) | MIC (K. pneumoniae PCI602) | MIC (M. morganii 1510) | MIC (P. vulgaris GN76) | MIC (Ps. aeruginosa GN10362) | MIC (S. aureus 209P JC-1) | MIC (S. aureus M126) | MIC (S. marcescens No. 1) | remaining at 3 h [1] | remaining at 3 h [2] | SMILES
0.1 µg/mL (≈ 0.215 µM) | 0.1 µg/mL (≈ 0.215 µM) | 0.1 µg/mL (≈ 0.215 µM) | 0.05 µg/mL (≈ 0.108 µM) | 0.1 µg/mL (≈ 0.215 µM) | 0.39 µg/mL (≈ 0.839 µM) | 0.78 µg/mL (≈ 1.68 µM) | 1.56 µg/mL (≈ 3.36 µM) | < 0.025 µg/mL | 6.25 µg/mL (≈ 13.5 µM) | 0.2 µg/mL (≈ 0.431 µM) |  |  | C[C@@H](O)[C@H]1C(=O)N2C(C(=O)O)=C(S[C@@H]3CN[C@H](C(O)c4csc5cncn45)C3)[C@H](C)[C@H]12 (single isomer, unassigned) [Ex. 6]
0.1 µg/mL | 0.05 µg/mL | < 0.025 µg/mL | < 0.025 µg/mL | 0.05 µg/mL | 0.2 µg/mL | 0.39 µg/mL | 6.25 µg/mL | < 0.025 µg/mL | 6.25 µg/mL | 0.05 µg/mL |  |  | C[C@@H](O)[C@H]1C(=O)N2C(C(=O)O)=C(S[C@@H]3CN[C@H](/C=C\c4csc5c[n+](C)cn45)C3)[C@H](C)[C@H]12 [Ex. 39, (1R,5S,6S)-6-((1R)-1-Hydroxyethyl)-1-methyl-2-[(3S,5S)-5-[2(Z)-(6-methylimidazo[5,1-b]thiazolium-3-yl)ethenyl]pyrrolidin-3-yl]thiocarbapen-2-em-3-carboxylic acid chloride]
0.1 µg/mL | 0.05 µg/mL | 0.05 µg/mL | 0.05 µg/mL | 0.1 µg/mL | 0.39 µg/mL | 0.78 µg/mL | 0.78 µg/mL | 0.05 µg/mL | 12.5 µg/mL | 0.1 µg/mL |  |  | C[C@@H](O)[C@H]1C(=O)N2C(C(=O)O)=C(S[C@@H]3CN[C@H](c4csc5c[n+](C)cn45)C3)[C@H](C)[C@H]12 [Ex. 50, (1R,5S,6S)-6-((1R)-1-Hydroxyethyl)-1-methyl-2-[(3S,5S)-5-[(6-methylimidazo[5,1-b]thiazolium)-3-yl]pyrrolidin-3-yl]thiocarbapen-2-em-3-carboxylic acid chloride]
0.1 µg/mL | 0.1 µg/mL | 0.1 µg/mL | 0.05 µg/mL | 0.1 µg/mL | 0.39 µg/mL | 0.78 µg/mL | 0.78 µg/mL | 0.05 µg/mL | 12.5 µg/mL | 0.1 µg/mL |  |  | C[C@@H](O)[C@H]1C(=O)N2C(C(=O)O)=C(S[C@@H]3CN[C@H](/C=C/c4cn5c[n+](CC(N)=O)cc5s4)C3)[C@H](C)[C@H]12 [Ex. 53A]
0.05 µg/mL | 0.05 µg/mL | 0.05 µg/mL | 0.05 µg/mL | 0.05 µg/mL | 0.2 µg/mL | 0.39 µg/mL | 0.78 µg/mL | < 0.025 µg/mL | 3.13 µg/mL | 0.1 µg/mL |  |  | C[C@@H](O)[C@H]1C(=O)N2C(C(=O)O)=C(S[C@@H]3CN[C@H](/C=C\c4cn5c[n+](CC(N)=O)cc5s4)C3)[C@H](C)[C@H]12 [Ex. 53B, (1R,5S,6S)-2-[(3S,5S)-5-[2(Z)-(6-(carbamoylmethyl)imidazo[5,1-b]thiazolium-2-yl)ethenyl]pyrrolidin-3-yl]thio-6-((1R)-1-hydroxyethyl)-1-methylcarbapen-2-em-3-carboxylic acid iodide]
0.05 µg/mL | < 0.025 µg/mL | 0.05 µg/mL | < 0.025 µg/mL | 0.05 µg/mL | 0.2 µg/mL | 0.39 µg/mL | 1.56 µg/mL | < 0.025 µg/mL | 3.13 µg/mL | 0.1 µg/mL |  |  | C[C@@H](O)[C@H]1C(=O)N2C(C(=O)O)=C(S[C@@H]3CN[C@H](/C=C\c4csc5c[n+](CC(N)=O)cn45)C3)[C@H](C)[C@H]12 [Ex. 54]
0.05 µg/mL | 0.05 µg/mL | 0.1 µg/mL | 0.05 µg/mL | 0.1 µg/mL | 0.39 µg/mL | 0.78 µg/mL | 0.78 µg/mL | < 0.025 µg/mL | 12.5 µg/mL | 0.39 µg/mL |  |  | Cc1n2cc(C[C@@H]3C[C@H](SC4=C(C(=O)O)N5C(=O)[C@H]([C@@H](C)O)[C@H]5[C@H]4C)CN3)sc2c[n+]1CCC(N)=O [Ex. 67, (1R,5S,6S)-2-[(3S,5S)-5-(6-(2-Carbamoylethyl)-5-methylimidazo[5,1-b]thiazolium-2-yl)methylpyrrolidin-3-yl]thio-6-((1R)-1-hydroxyethyl)-1-methylcarbapen-2-em-3-carboxylic acid chloride]
